Test results: US20190085024A1, “Alpha-Ketoamide Inhibitors Of Cysteine Proteases” (Phelix Therapeutics, priority 2017, published 2019)
*1 amine or outer side, *2 acyl side, *3 side chain or, on linkers, in order; H or OH if unused. Where a SMILES comes first, the peptide text is derived from it. [ ]: non-standard residue; d: D form. The star is where a group is joined. ξ: configuration not given here. ξβ3hPhe(2-oxo) = O=C(C(=O)[*:2])C(Cc1ccccc1)N[*:1]; Cbz = O=C(OCc1ccccc1)*

Legend:
Cathepsin L = Cathepsin L (Homo sapiens, UniProt P07711); test: Cathepsin L enzyme assay; format: biochemical; conditions: Ki by Morrison equation; pH 5.5, substrate Z-Phe-Arg-Amc; read-out: Cat L
Sequence of Cathepsin L (P07711 114-333, species assumed): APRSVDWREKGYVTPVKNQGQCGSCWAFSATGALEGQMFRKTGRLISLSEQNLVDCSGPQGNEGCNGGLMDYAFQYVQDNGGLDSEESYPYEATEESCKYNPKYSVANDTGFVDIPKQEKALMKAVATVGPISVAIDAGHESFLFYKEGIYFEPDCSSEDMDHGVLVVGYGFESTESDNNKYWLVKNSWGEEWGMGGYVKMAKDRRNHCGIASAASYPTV
From the text: Two wells contained DMSO only for controls.
Velocity was converted to μM/sec.

Cathepsin B = Cathepsin B (Homo sapiens, UniProt P07858); test: Cathepsin B enzyme assay; conditions: Cat B (μM), Ki by Morrison equation; pH 6.0, substrate Z-Phe-Arg-Amc
Calpain = Calpain enzyme assay; format: biochemical; conditions: Ki by Morrison equation; pH 7.5, 5 mM CaCl2
[1] = tested on: EBOV WT (Ebola Wild Type); test: microbe, parasite or virus in culture; format: cell-based; conditions: Zaire ebolavirus, read-out: EBOV WT (μM) (Ebola Wild Type)
Cat S = Cat S (Homo sapiens, UniProt P25774); test: Cat S inhibition; format: biochemical
Sequence of Cat S (P25774 115-331): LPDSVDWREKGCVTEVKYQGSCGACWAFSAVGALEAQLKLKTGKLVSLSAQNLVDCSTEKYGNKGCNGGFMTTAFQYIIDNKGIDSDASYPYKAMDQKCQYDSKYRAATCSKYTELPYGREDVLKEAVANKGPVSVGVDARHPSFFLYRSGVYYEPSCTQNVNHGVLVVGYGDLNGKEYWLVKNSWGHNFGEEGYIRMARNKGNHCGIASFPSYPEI

MERS WT = test: microbe, parasite or virus in culture; format: cell-based; conditions: Middle East respiratory syndrome-related coronavirus, read-out: MERS WT (μM)

`C=CCOCC(NC(=O)C(=O)C(COCC=C)NC(=O)C(CC(C)C)NC(=O)OCc1ccccc1)C(=O)NC(Cc1ccc2ccccc2c1)C(N)=O` (stereo not drawn) [PHELIX228, benzyl (1-((1-(allyloxy)-4-((3-(allyloxy)-1-((1-amino-3-(naphthalen-2-yl)-1-oxopropan-2-yl)amino)-1-oxopropan-2-yl)amino)-3,4-dioxobutan-2-yl)amino)-4-methyl-1-oxopentan-2-yl)carbamate] was tested, and the Ki (Cathepsin L) was 0.08 nM, the Ki (Cathepsin B) was 0.276 µM and the Ki (Calpain) was 25.3 nM. It also gave an IC50 [1] of 3.02 µM.

In the case of `CC(C)CC(=O)NC(Cc1ccccc1)C(=O)NC(C)C(=O)C(=O)NC(Cc1ccccc1)C(=O)NC(C)(C)C(N)=O` (stereo not drawn) [PHELIX235, N-(1-((1-amino-2-methyl-1-oxopropan-2-yl)amino)-1-oxo-3-phenylpropan-2-yl)-3-(2-(3-methylbutanamido)-3-phenylpropanamido)-2-oxobutanamide], the Ki (Cathepsin L) is reported as 236 nM, the Ki (Cathepsin B) is reported as 0.644 µM and the Ki (Cat S) is reported as 28.9 nM. It also gave a Ki (Calpain) greater than 10000 nM.

Compound `CCCCC(=O)NC(Cc1ccccc1)C(=O)NC(C)C(=O)C(=O)NC(Cc1ccccc1)C(=O)NC(C)(C)C(N)=O` (stereo not drawn) [PHELIX236, N-(1-((4-((1-((1-amino-2-methyl-1-oxopropan-2-yl)amino)-1-oxo-3-phenylpropan-2-yl)amino)-3,4-dioxobutan-2-yl)amino)-1-oxo-3-phenylpropan-2-yl)pentanamide] has a Ki (Cathepsin L) of 1720 nM, a Ki (Cathepsin B) greater than 10 µM and a Ki (Cat S) of 260 nM. The Ki (Calpain) was greater than 10000 nM.

`CC(NC(=O)C(Cc1ccccc1)NC(=O)Cc1ccccc1)C(=O)C(=O)NC(Cc1ccc(-c2ccccc2)cc1)C(=O)NC(C)(C)C(N)=O` (stereo not drawn) [PHELIX241, N-(3-([1,1′-biphenyl]-4-yl)-1-((1-amino-2-methyl-1-oxopropan-2-yl)amino)-1-oxopropan-2-yl)-2-oxo-3-(3-phenyl-2-(2-phenylacetamido)propanamido)butanamide] showed a Ki (Cathepsin L) of 1360 nM, a Ki (Cathepsin B) greater than 10 µM and a Ki (Cat S) of 2740 nM. For the same compound, the Ki (Calpain) was greater than 10000 nM.

`CCCCC(NC(=O)C(=O)C(C)NC(=O)C(Cc1ccccc1)NC(=O)Cc1ccccc1)C(=O)NC(C)(C)C(N)=O` (stereo not drawn) [PHELIX242, N-(1-amino-2-methyl-1-oxopropan-2-yl)-2-(2-oxo-3-(3-phenyl-2-(2-phenylacetamido)propanamido)butanamido)hexanamide] showed a Ki (Cathepsin L) of 7520 nM, a Ki (Cathepsin B) greater than 10 µM and a Ki (Cat S) of 555 nM. For the same compound, the Ki (Calpain) was greater than 10000 nM.

Compound `CC(C)C[C@H](NC(=O)C(c1ccccc1)c1ccccc1)C(=O)NC(C)C(=O)C(=O)NCC(=O)N[C@@H](Cc1ccc2ccccc2c1)C(N)=O` (stereo partly drawn) [PHELIX251, N-(4-((2-((1-amino-3-(naphthalen-2-yl)-1-oxopropan-2-yl)amino)-2-oxoethyl)amino)-3,4-dioxobutan-2-yl)-2-(2,2-diphenylacetamido)-4-methylpentanamide] has a Ki (Cathepsin L) of 1.4 nM, a Ki (Cathepsin B) of 0.106 µM and an IC50 (MERS WT) greater than 30 µM. It also gave a Ki (Calpain) of 25 nM.

Work on `CC(C)CC(NC(=O)OCc1ccccc1)C(=O)NC(Cc1ccccc1)C(=O)C(=O)NC(C)C(=O)NC(CCC(=O)O)C(=O)NC(CCCNC(=N)N)C(N)=O` (stereo not drawn) [PHELIX252, 15-((1-amino-5-guanidino-1-oxopentan-2-yl)carbamoyl)-8-benzyl-5-isobutyl-12-methyl-3,6,9,10,13-pentaoxo-1-phenyl-2-oxa-4,7,11,14-tetraazaoctadecan-18-oic acid] (Cbz-L[ξβ3hPhe(2-oxo)]AER-NH2; configuration not given here) yielded a Ki (Cathepsin L) of 5.03 nM, a Ki (Cathepsin B) greater than 10 µM and an IC50 (MERS WT) greater than 30 µM. The Ki (Calpain) was 17 nM.

With `CC(C)CC(NC(=O)Cc1ccc(-c2ccccc2)cc1)C(=O)NC(C)C(=O)C(=O)NCC(=O)NC(Cc1ccc2ccccc2c1)C(N)=O` (stereo not drawn) [PHELIX253, 2-(2-([1,1′-biphenyl]-4-yl)acetamido)-N-(4-((2-((1-amino-3-(naphthalen-2-yl)-1-oxopropan-2-yl)amino)-2-oxoethyl)amino)-3,4-dioxobutan-2-yl)-4-methylpentanamide] the Ki (Cathepsin L) was 21.5 nM, the Ki (Cathepsin B) was 1.17 µM and the IC50 (MERS WT) was greater than 30 µM. For the same compound, the Ki (Calpain) was 21.4 nM.

Work on `CC(C)CC(NC(=O)OCc1ccccc1)C(=O)NC(Cc1ccccc1)C(=O)C(=O)NCC(=O)NC(Cc1ccc2ccccc2c1)C(N)=O` (stereo not drawn) [PHELIX256, benzyl (1-((4-((2-((1-amino-3-(naphthalen-2-yl)-1-oxopropan-2-yl)amino)-2-oxoethyl)amino)-3,4-dioxo-1-phenylbutan-2-yl)amino)-4-methyl-1-oxopentan-2-yl)carbamate] yielded a Ki (Cathepsin L) of 1.47 nM, a Ki (Cathepsin B) of 0.24 µM and an IC50 (MERS WT) of 4.97 µM. For the same compound, the Ki (Calpain) was 12.2 nM.

`CC(NC(=O)C(Cc1ccccc1)NC(=O)Cc1ccccc1)C(=O)C(=O)NC(CC1CCCCC1)C(=O)NC(Cc1ccc(-c2ccccc2)cc1)C(N)=O` (stereo not drawn) [PHELIX259, N-(1-((3-([1,1′-biphenyl]-4-yl)-1-amino-1-oxopropan-2-yl)amino)-3-cyclohexyl-1-oxopropan-2-yl)-2-oxo-3-(3-phenyl-2-(2-phenylacetamido)propanamido)butanamide] showed a Ki (Cathepsin L) of 1.93 nM, a Ki (Cathepsin B) greater than 10 µM and an IC50 (MERS WT) of 1.1 µM. It also gave a Ki (Calpain) greater than 10000 nM.

`CC(NC(=O)C(Cc1ccccc1)NC(=O)Cc1ccccc1)C(=O)C(=O)NC(CC1CC1)C(=O)NC(Cc1ccc(-c2ccccc2)cc1)C(N)=O` (stereo not drawn) [PHELIX260, N-(1-((3-([1,1′-biphenyl]-4-yl)-1-amino-1-oxopropan-2-yl)amino)-3-cyclopropyl-1-oxopropan-2-yl)-2-oxo-3-(3-phenyl-2-(2-phenylacetamido)propanamido)butanamide] showed a Ki (Cathepsin L) of 0.27 nM, a Ki (Cathepsin B) of 0.0178 µM and an IC50 (MERS WT) of 1.81 µM. For the same compound, the Ki (Calpain) was greater than 10000 nM.

In the case of `CC(NC(=O)C(Cc1ccccc1)NC(=O)Cc1ccccc1)C(=O)C(=O)NC(Cc1ccc(C(F)(F)F)cc1)C(=O)NC(Cc1ccc(-c2ccccc2)cc1)C(N)=O` (stereo not drawn) [PHELIX261, N-(1-((3-([1,1′-biphenyl]-4-yl)-1-amino-1-oxopropan-2-yl)amino)-1-oxo-3-(4-(trifluoromethyl)phenyl)propan-2-yl)-2-oxo-3-(3-phenyl-2-(2-phenylacetamido)propanamido)butanamide], the Ki (Cathepsin L) is reported as 2.48 nM, the Ki (Cathepsin B) is reported as greater than 10 µM and the IC50 (MERS WT) is reported as 2.56 µM. The Ki (Calpain) was greater than 10000 nM.

`CC(NC(=O)C(Cc1ccccc1)NC(=O)Cc1ccccc1)C(=O)C(=O)NC(Cc1ccccc1F)C(=O)NC(Cc1ccc(-c2ccccc2)cc1)C(N)=O` (stereo not drawn) [PHELIX263, N-(1-((3-([1,1′-biphenyl]-4-yl)-1-amino-1-oxopropan-2-yl)amino)-3-(2-fluorophenyl)-1-oxopropan-2-yl)-2-oxo-3-(3-phenyl-2-(2-phenylacetamido)propanamido)butanamide] gave a Ki (Cathepsin L) of 0.06 nM, a Ki (Cathepsin B) of 0.6 µM and an IC50 (MERS WT) of 0.99 µM. It also gave a Ki (Calpain) greater than 10000 nM.

Compound `CC(NC(=O)C(Cc1ccccc1)NC(=O)Cc1ccccc1)C(=O)C(=O)NC(Cc1cccc(C(F)(F)F)c1)C(=O)NC(Cc1ccc(-c2ccccc2)cc1)C(N)=O` (stereo not drawn) [PHELIX264, N-(1-((3-([1,1′-biphenyl]-4-yl)-1-amino-1-oxopropan-2-yl)amino)-1-oxo-3-(3-(trifluoromethyl)phenyl)propan-2-yl)-2-oxo-3-(3-phenyl-2-(2-phenylacetmido)propanamido)butanamide] has a Ki (Cathepsin L) of 1.91 nM, a Ki (Cathepsin B) greater than 10 µM and an IC50 (MERS WT) of 2.68 µM. The Ki (Calpain) was greater than 10000 nM.

`CC(NC(=O)C(Cc1ccccc1)NC(=O)Cc1ccccc1)C(=O)C(=O)NC(Cc1ccccc1C(F)(F)F)C(=O)NC(Cc1ccc(-c2ccccc2)cc1)C(N)=O` (stereo not drawn) [PHELIX265, N-(1-((3-([1,1′-biphenyl]-4-yl)-1-amino-1-oxopropan-2-yl)amino)-1-oxo-3-(2-(trifluoromethyl)phenyl)propan-2-yl)-2-oxo-3-(3-phenyl-2-(2-phenylacetamido)propanamido)butanamide] gave a Ki (Cathepsin L) of 302 nM, a Ki (Cathepsin B) greater than 10 µM and an IC50 (MERS WT) of 2.2 µM. The Ki (Calpain) was greater than 10000 nM.

Work on `CC(NC(=O)C(Cc1ccccc1)NC(=O)Cc1ccccc1)C(=O)C(=O)NC(Cc1cccc(F)c1)C(=O)NC(Cc1ccc(-c2ccccc2)cc1)C(N)=O` (stereo not drawn) [PHELIX266, N-(1-((3-([1,1′-biphenyl]-4-yl)-1-amino-1-oxopropan-2-yl)amino)-3-(3-fluorophenyl)-1-oxopropan-2-yl)-2-oxo-3-(3-phenyl-2-(2-phenylacetamido)propanamido)butanamide] yielded a Ki (Cathepsin L) of 0.14 nM, a Ki (Cathepsin B) greater than 10 µM and an IC50 (MERS WT) of 0.78 µM. For the same compound, the Ki (Calpain) was greater than 10000 nM.

With `CCC(C)C(NC(=O)C(CC(C)C)NC(=O)C(Cc1ccccc1)NC(=O)OCc1ccccc1)C(=O)C(=O)NC(CCCNC(=N)N)C(N)=O` (stereo not drawn) [PHELIX268, benzyl (1-amino-10-(sec-butyl)-6-carbamoyl-1-imino-13-isobutyl-8,9,12,15-tetraoxo-17-phenyl-2,7,11,14-tetraazaheptadecan-16-yl)carbamate] the Ki (Cathepsin L) was 0.95 nM, the Ki (Cathepsin B) was 0.171 µM and the IC50 (MERS WT) was greater than 30 µM. The Ki (Calpain) was 10.6 nM.

Work on `C=CCOC(=O)NCCCCC(NC(=O)C(=O)C(NC(=O)C(CC(C)C)NC(=O)C(Cc1ccccc1)NC(=O)OCc1ccccc1)C(C)CC)C(N)=O` (stereo not drawn) [PHELIX269, benzyl (15-(sec-butyl)-11-carbamoyl-18-isobutyl-5,13,14,17,20-pentaoxo-22-phenyl-4-oxa-6,12,16,19-tetraazadocos-1-en-21-yl)carbamate] yielded a Ki (Cathepsin L) of 4.13 nM, a Ki (Cathepsin B) of 0.763 µM and an IC50 (MERS WT) greater than 30 µM. It also gave a Ki (Calpain) of 4.34 nM.

With `CCC(C)C(NC(=O)C(CC(C)C)NC(=O)OCc1ccccc1)C(=O)C(=O)NC(CCCNC(N)=O)C(=O)NC(Cc1ccc2ccccc2c1)C(N)=O` (stereo not drawn) [PHELIX315, benzyl (1-((1-((1-((1-amino-3-(naphthalen-2-yl)-1-oxopropan-2-yl)amino)-1-oxo-5-ureidopentan-2-yl)amino)-4-methyl-1,2-dioxohexan-3-yl)amino)-4-methyl-1-oxopentan-2-yl)carbamate] the Ki (Cathepsin L) was 0.47 nM, the Ki (Cathepsin B) was greater than 10 µM and the Ki (Calpain) was 1.48 nM.
